Measurements taken from patent US20210077461A1, “NEW USE” (Novartis AG, priority 2013, published 2021).

Legend:
[1] = tested on: patients with chronic symptomatic heart failure and reduced ejection fraction (HF-REF); assay: PARADIGM-HF: safety and tolerability
Experimental: Patients are assessed at each study visit for hyperkalaemia, symptomatic hypotension, increase in serum creatinine, angioedema and other AEs and serious AEs (SAEs). […] The dose of background disease modifying drugs, such as β-blockers, should not be reduced to facilitate maintenance of study drug. Every attempt should be made to re-challenge the patients so as to maintain as many patients as possible on the target dose of study drug.
All identified cases are submitted to an independent angioedema adjudication committee for a final decision.
Thus, this study employed a seamless design, incorporating “Phase II” into a “Phase III” outcomes trial, as considered further in the Discussion. Further interim safety assessments are planned twice a year.

[2] = tested on: patients with chronic symptomatic heart failure and reduced ejection fraction (HF-REF); assay: PARADIGM-HF randomized double-blind trial, LCZ696 versus enalapril: efficacy outcomes; assay type: in vivo, human; conditions: for Death from any cause, number of patients / Death from any cause, percent of patients / Death from cardiovascular causes or first hospitalization for worsening heart failure (primary composite outcome), number of patients with an event / Death from cardiovascular causes or first hospitalization for worsening heart failure (primary composite outcome), percent of patients / Death from cardiovascular causes, number of patients / Death from cardiovascular causes, percent of patients / Decline in renal function, percent of patients / First hospitalization for worsening heart failure, number of patients / First hospitalization for worsening heart failure, percent of patients / Protocol-defined decline in renal function, number of patients: LCZ696 200 mg bid (N = 4187) or enalapril 10 mg bid (N = 4212); for Death from any cause, number of patients / Death from any cause, percent of patients / Death from cardiovascular causes or first hospitalization for worsening heart failure (primary composite outcome), number of patients with an event / Death from cardiovascular causes or first hospitalization for worsening heart failure (primary composite outcome), percent of patients / Death from cardiovascular causes, number of patients / Death from cardiovascular causes, percent of patients / Decline in renal function, percent of patients / First hospitalization for worsening heart failure, number of patients / First hospitalization for worsening heart failure, percent of patients / Protocol-defined decline in renal function, number of patients / New onset atrial fibrillation, percent of patients at risk / New onset atrial fibrillation, number of patients with an event (as a fraction of number of patients at risk): median follow-up 27 months; for Progressed to end-stage renal disease, number of patients / New onset atrial fibrillation, percent of patients at risk / New onset atrial fibrillation, number of patients with an event (as a fraction of number of patients at risk): LCZ696 200 mg bid or enalapril 10 mg bid; for KCCQ clinical summary score, direction of change when zero values were not imputed for patients who died: baseline to month 8
Source text: Patients with chronic HF, NYHA functional class II-IV symptoms, an elevated plasma B-type natriuretic peptide (BNP) or NT-proBNP level and, initially, a left ventricular ejection fraction of ≤40% (later amended to ≤35%) are eligible. […] Secondary outcome measures are change in the Kansas City Cardiomyopathy Questionnaire (KCCQ) clinical summary score at 8 months, change in renal function, and time to all-cause mortality.
The trial was designed by the academic members of the Executive Committee (EC) in collaboration with Novartis personnel.
Entry criteria: 1) age 18 years or older and able to give written informed consent 2) New York Heart Association (NYHA) functional class II-IV, 3) left ventricular ejection fraction (LVEF) ≤35% (initially this was ≤40% but changed in a protocol amendment dated Dec. 15, 2010), 4) plasma B-type natriuretic peptide (BNP) ≥150 pg/ml (or N-terminal [NT]-proBNP ≥600 pg/ml) at the screening visit or a BNP ≥100 pg/mL (or NT-proBNP ≥400 pg/ml) and a hospitalization for HF within the last 12 months, 5) treatment with a stable dose of an ACE inhibitor or an ARB equivalent to enalapril 10 mg/d for at least 4 weeks before the screening visit, 6) treatment with stable dose of a β-blocker for at least 4 weeks prior to Visit 1, unless contraindicated or not tolerated. Although not required, the protocol specified that an aldosterone antagonist should also be considered in all patients, taking account of renal function, serum potassium and tolerability. If given, the dose of aldosterone antagonist should be stable for at least 4 weeks prior to the screening visit.
The key exclusion criteria include: • 1. […] Previous history of intolerance to recommended target doses of ACEIs or ARBs. • 3. Known history of angioedema. • 4. Requirement of treatment with both ACEIs and ARBs. • 5. Current acute decompensated heart failure (exacerbation of chronic heart failure manifested by signs and symptoms that may require intravenous therapy). • 6. Symptomatic hypotension and/or a systolic blood pressure (SBP)<100 mmHg at Visit 1 (screening) or <95 mmHg at Visit 3 or at Visit 5 (randomization). • 7. […] Serum potassium >5.2 mmol/L at Visit 1 (screening) or >5.4 mmol/L at Visit 3 or Visit 5 (randomization). • 9. Acute coronary syndrome, stroke, transient ischemic attack, cardiac, carotid or other major CV surgery, percutaneous coronary intervention or carotid angioplasty within the 3 months prior to Visit 1. • 10. Coronary or carotid artery disease likely to require surgical or percutaneous intervention within the 6 months after Visit 1. • 11. Implantation of a cardiac resynchronization therapy device (CRT) within 3 months prior
Visit 1 or intent to implant a CRT. • 12. History of heart transplant or on a transplant list or with left ventricular assistance device. • 13. History of severe pulmonary disease. • 14. Diagnosis of peripartum or chemotherapy induced cardiomyopathy within the 12 months prior to Visit 1. • 15. Documented untreated ventricular arrhythmia with syncopal episodes within the 3 months prior to Visit 1. • 16. Symptomatic bradycardia or second or third degree atrio-ventricular block without a pacemaker. • 17. Presence of haemodynamically significant mitral and/or aortic valve disease, except mitral regurgitation secondary to left ventricular dilatation. • 18. Presence of other haemodynamically significant obstructive lesions of left ventricular outflow tract, including aortic and sub-aortic stenosis. • 19. […] Presence of any other disease with a life expectancy of <5 years.
At the screening visit, patient eligibility was assessed according to the inclusion/exclusion criteria. Any local measurement of LVEF ≤35%, made within the past 6 months, was acceptable provided there was no subsequent LVEF measurement above 35%. Eligibility BNP (and NT-proBNP), serum potassium and estimated glomerular filtration rate (eGFR) were measured in a central laboratory.

[3] = tested on: patients with heart failure; conditions: cited from earlier work
[4] = in vivo; cited from earlier work
[5] = tested on: HF patients; conditions: cited from earlier work
[6] = tested on: hypertensive patients; conditions: cited from earlier work
[7] = LCZ696 group compared with enalapril group, stratified Cox model
[8] = over the duration of the trial, LCZ696 versus enalapril
[9] = zero values imputed for patients who died
[10] = subgroups by base-line treatment

CCCCC(=O)N(Cc1ccc(-c2ccccc2-c2nn[n-]n2)cc1)C(C(=O)[O-])C(C)C.CCOC(=O)C(C)CC(Cc1ccc(-c2ccccc2)cc1)NC(=O)CCC(=O)[O-].[Na+].[Na+].[Na+] [LCZ696, trisodium [3-((1S,3R)-1-biphenyl-4-ylmethyl-3-ethoxycarbonyl-1-butylcarbamoyl)propionate-(S)-3′-methyl-2′-(pentanoyl{2″-(tetrazol-5-ylate)biphenyl-4′-ylmethyl}amino)butyrate] hemipentahydrate]
Angioedema confirmed by blinded adjudication, number of patients ([1]; following randomization): 19 patients
Cough as an adverse event, compared with the enalapril group ([1]; following randomization): less and less likely
Experience of serum creatinine level ≥2.5 mg/dl, compared with the enalapril group ([1]; following randomization): less likely
Experience of serum potassium level >6.0 mmol/l, compared with the enalapril group ([1]; following randomization): less likely
Hypotension / report of symptomatic hypotension, compared with the enalapril group ([1]; following randomization): more and more likely
Patients who stopped study medication because of renal impairment ([1]; following randomization): 0.7%
Patients who stopped study medication for any adverse event ([1]; following randomization): 10.7%
Hyperkalemia, compared with the enalapril group ([1]; in vivo): less
Non-serious angioedema, compared with the enalapril group ([1]; in vivo): more
Renal impairment, compared with the enalapril group ([1]; in vivo): less
Death from any cause, number of patients [2]: 711 patients
Death from any cause, percent of patients [2]: 17.0%
Death from cardiovascular causes or first hospitalization for worsening heart failure (primary composite outcome), number of patients with an event [2]: 914 patients
Death from cardiovascular causes or first hospitalization for worsening heart failure (primary composite outcome), percent of patients [2]: 21.8%
Death from cardiovascular causes, number of patients [2]: 558 patients
Death from cardiovascular causes, percent of patients [2]: 13.3%
Decline in renal function, percent of patients [2]: 2.3
First hospitalization for worsening heart failure, number of patients [2]: 537 patients
First hospitalization for worsening heart failure, percent of patients [2]: 12.8%
Protocol-defined decline in renal function, number of patients [2]: 94 patients
Progressed to end-stage renal disease, number of patients [2]: 8 patients
New onset atrial fibrillation, percent of patients at risk [2]: (3.2)
Death from any cause, hazard ratio [2, 7]: 0.84
Death from cardiovascular causes, hazard ratio [2, 7]: 0.80
Decline in renal function, hazard ratio [2, 7]: 0.86
First hospitalization for worsening heart failure, hazard ratio [2, 7]: 0.79
New onset atrial fibrillation, hazard ratio [2, 7]: 0.97
Primary composite outcome, hazard ratio [2, 7]: 0.80
KCCQ clinical summary score change, between-group difference when zero values were not imputed for patients who died ([2]; LCZ696 group versus enalapril group): 0.95
KCCQ clinical summary score change at 8 months, between-group difference ([2]; LCZ696 group versus enalapril group, zero values imputed for patients who died): 1.64
Reduction of the risk of cardiovascular death and the risk of hospitalization for heart failure compared to enalapril ([2]; LCZ696 versus ACE inhibition with enalapril): 20%
Reduction of hospitalization for heart failure compared to enalapril ([2]; LCZ696 versus enalapril): 21%
KCCQ clinical summary score, direction of change when zero values were not imputed for patients who died [2]: improved
Systolic blood pressure at 8 months compared with value at randomization, lower in the LCZ696 group than in the enalapril group ([2]; difference between groups at 8 months): 3.2±0.4 mm Hg
Number of patients needed to treat to prevent one cardiovascular death [2, 8]: 32 patients
Number of patients needed to treat to prevent one primary event [2, 8]: 21 patients
Mean change in KCCQ Clinical Summary Score from baseline to month 8 [2, 9]: −2.99

CCCCC(=O)N(Cc1ccc(-c2ccccc2-c2nnn[nH]2)cc1)[C@H](C(=O)O)C(C)C [valsartan, (S)—N-valeryl-N-{[2′-(1H-tetrazole-5-yl)-biphenyl-4-yl]-methyl}-valine]
Incidence of the combined end point of mortality and morbidity, lower with valsartan than with placebo ([3]; Val-HeFT): 13.2%
NYHA class, ejection fraction, signs and symptoms of heart failure, and quality of life as compared with placebo ([3]; Val-HeFT): significant improvements
Number of patients hospitalized for heart failure ([3]; Val-HeFT): 346 patients
Overall mortality compared with placebo group ([3]; Val-HeFT): similar
Percent of patients hospitalized for heart failure ([3]; Val-HeFT): 13.8%
Post hoc analysis of the combined end point and mortality, patients receiving both ACE inhibitors and beta-blockers [3, 10]: adverse effect
Post hoc analysis of the combined end point and mortality, patients receiving neither or one of ACE inhibitors or beta-blockers [3, 10]: favorable effect
Combined end point of mortality and morbidity, relative risk ([3]; valsartan versus placebo): 0.87

O=C(N[C@H]1CCS[C@H]2CCC[C@@H](C(=O)O)N2C1=O)[C@@H](S)Cc1ccccc1 [omapatrilat]
BP lowering as compared to other therapeutic classes, including ACE inhibitors and calcium channel blockers [4]: greater BP lowering
Incidence of angioedema [5]: 0.8%
Mortality and morbidity in patients with HF relative to enalapril [5]: encouraging trend toward reducing mortality and morbidity
Incidence of angioedema [6]: 2.17%

CCOC(=O)[C@H](CCc1ccccc1)N[C@@H](C)C(=O)N1CCC[C@H]1C(=O)O [Enalapril, (2S)-1-[(2S)-2-{[(2S)-1-ethoxy-1-oxo-4-phenylbutan-2-yl]amino}propanoyl]-pyrrolidine-2-carboxylic acid, reference compound]
Incidence of angioedema [5]: 0.5%
Angioedema confirmed by blinded adjudication, number of patients ([1]; human, in vivo): 10 patients
Patients who stopped study medication because of renal impairment ([1]; human, in vivo): 1.4%
Patients who stopped study medication for any adverse event ([1]; human, in vivo): 12.3%
Death from any cause, number of patients [2]: 835 patients
Death from any cause, percent of patients [2]: 19.8%
Death from cardiovascular causes or first hospitalization for worsening heart failure (primary composite outcome), number of patients with an event [2]: 1117 patients
Death from cardiovascular causes or first hospitalization for worsening heart failure (primary composite outcome), percent of patients [2]: 26.5%
Death from cardiovascular causes, number of patients [2]: 693 patients
Death from cardiovascular causes, percent of patients [2]: 16.5%
Decline in renal function, percent of patients [2]: 2.6
First hospitalization for worsening heart failure, number of patients [2]: 658 patients
First hospitalization for worsening heart failure, percent of patients [2]: 15.6%
Protocol-defined decline in renal function, number of patients [2]: 108 patients
Progressed to end-stage renal disease, number of patients [2]: 16 patients
New onset atrial fibrillation, number of patients with an event (as a fraction of number of patients at risk) [2]: 83/2638
New onset atrial fibrillation, percent of patients at risk [2]: (3.2)
New onset atrial fibrillation, number of patients with an event (as a fraction of number of patients at risk) ([2]; listed as enalapril): 83 patients
KCCQ clinical summary score, direction of change when zero values were not imputed for patients who died [2]: declined
Mean change in KCCQ Clinical Summary Score from baseline to month 8 [2, 9]: −4.63
Incidence of angioedema [6]: 0.68%
